Assay results from publication PMC6691884 (Journal of Enzyme Inhibition and Medicinal Chemistry, 2019).

Experiments:
BsuCA 1 = molecular target: T1, BsuCA 1 (Brucella suis, UniProt A0A0H3GDA4); conditions: activation constant (not association constant); activator; CO2 substrate; 10 mM Tris pH 8.4, 0.1 M Na2SO4, 25 °C; 15 min pre-incubation
T1 construct: gene BS1330_I1823

FtuCA = molecular target: T2, FtuCA (Francisella tularensis, UniProt Q5NH77); conditions: activation constant (not association constant); activator; CO2 substrate; 10 mM Tris pH 8.4, 0.1 M Na2SO4, 25 °C; 15 min pre-incubation
T2 construct: gene cynT
T2 sequence (Q5NH77 1-228): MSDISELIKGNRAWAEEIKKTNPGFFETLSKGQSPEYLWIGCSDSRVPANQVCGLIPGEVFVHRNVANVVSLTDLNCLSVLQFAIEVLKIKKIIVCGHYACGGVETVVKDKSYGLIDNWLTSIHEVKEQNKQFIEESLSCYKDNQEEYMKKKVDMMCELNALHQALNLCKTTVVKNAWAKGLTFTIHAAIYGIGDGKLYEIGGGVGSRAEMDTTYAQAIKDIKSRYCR

T1 sequence (A0A0H3GDA4 1-213): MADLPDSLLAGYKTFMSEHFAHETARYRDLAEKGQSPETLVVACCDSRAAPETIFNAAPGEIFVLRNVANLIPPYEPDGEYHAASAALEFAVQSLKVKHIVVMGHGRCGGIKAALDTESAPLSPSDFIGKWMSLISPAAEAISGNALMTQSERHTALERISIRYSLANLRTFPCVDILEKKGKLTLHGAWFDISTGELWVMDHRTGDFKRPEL

Row | SMILES | KA (μM)^a / BsuCA1 ^c (BsuCA 1) [µM] | KA (μM)^a / FtuCA^c (FtuCA) [µM]
1 | N[C@@H](Cc1ccc(O)cc1)C(=O)O [compound 9, L-Tyr] | 1.38 | 
2 | Nc1ccc(C[C@H](N)C(=O)O)cc1 [compound 11, 4-H2N-L-Phe] | 1.18 | 
3 | N[C@H](Cc1c[nH]c2ccccc12)C(=O)O [compound 8, D-Trp] |  | 30.5
4 | N[C@H](CCC(=O)O)C(=O)O [compound 23, D-Glu] | 1.39 | 
5 | N[C@H](Cc1ccc(O)c(O)c1)C(=O)O [compound 6, D-DOPA] |  | 44.8
6 | N[C@@H](Cc1ccc(O)c(O)c1)C(=O)O [compound 5, L-DOPA] | 2.07 | 
7 | NCCc1ccc(O)c(O)c1 [compound 13, Dopamine] | 1.54 | 
8 | NCc1ccccn1 [compound 15, 2-Pyridyl-methylamine] | 1.62 | 46.3
9 | N[C@H](Cc1ccc(O)cc1)C(=O)O [compound 10, D-Tyr] | 0.95 | 
10 | N[C@@H](Cc1cnc[nH]1)C(=O)O [compound 1, L-His] | 1.76 | 40.7
11 | NCCN1CCNCC1 [compound 17, 1-(2-Aminoethyl)-piperazine] |  | 51.8
12 | N[C@H](Cc1ccccc1)C(=O)O [compound 4, D-Phe] | 1.21 | 
13 | N[C@@H](Cc1c[nH]c2ccccc12)C(=O)O [compound 7, L-Trp] | 1.25 | 34.1
14 | CNC[C@H](O)c1ccc(O)c(O)c1 [compound 19, L-Adrenaline] | 0.70 | 
15 | NC(=O)CC[C@H](N)C(=O)O [compound 24, L-Gln] |  | 45.7
16 | N[C@@H](CCC(=O)O)C(=O)O [compound 22, L-Glu] |  | 9.13
